Measurements reported in US20250126968A1, “Light-Emitting Device” (Semiconductor Energy Laboratory Co., Ltd., priority 2023, published 2025).

Assay: Solubility test of PrdP2Phen by LC-MS analysis
Assay type: physicochemical
Conditions: 1 mg in 1 mL of water, ultrasonic waves 5 minutes, membrane-filtered, filtrate analysed by LC-MS; one atmosphere, room temperature
Description: Next, a solubility test of PrdP2Phen was performed. Note that the solubility test was conducted at a pressure of one atmosphere at room temperature (RT).
In the LC-MS analysis, liquid chromatography (LC) separation was carried out with ACQUITY UPLC (Waters Corporation), and MS analysis (mass spectrometry) was carried out with Xevo G2 Tof MS (Waters Corporation). Acquity UPLC BEH C8 (2.1×100 mm, 1.7 μm) was used as a column for the LC separation. Acetonitrile was used for Mobile Phase A and a 0.1% aqueous solution of formic acid was used for Mobile Phase B. The injection amount of the sample was 5.0 μL. Note that in the analysis, the wavelength of a photodiode array detector was set to 263 nm±1 nm.
In a 5-mL sample bottle, 1 mg of PrdP2Phen was put and 1 mL of water was added thereto. This mixture was irradiated with ultrasonic waves for 5 minutes. This mixture was filtered through a membrane filter to remove the solid, and the resulting filtrate was diluted by five times with acetonitrile. The obtained solution was subjected to LC-MS analysis.

solubility in water: extremely low solubility in water
SMILES: c1cc(-c2ccc(N3CCCC3)cc2)c2ccc3c(-c4ccc(N5CCCC5)cc4)ccnc3c2n1 [PrdP2Phen, 4,7-bis[4-(1-pyrrolidinyl)phenyl]-1,10-phenanthroline]
